Data: patent US9957325B2, “Synthetic antibody mimic peptides” (Formurex, Inc., priority 2015, dated 2018)
Read-outs that look alike come from different tables or passages of the source. Where a SMILES comes first, the peptide text is derived from it. The star is where a group is joined. X1 = CC[C@H](C)[C@@H]([C@@H](CC(=O)N1CCC[C@H]1[C@H](OC)[C@@H](C)C(=O)N[C@H](C)[C@@H](OC(=O)CCCCC(=NNC(=O)CCCCCN1C(=O)CC(*)C1=O)c1ccccc1)c1ccccc1)OC)N(C)C(=O)[C@@H](NC(=O)[C@H](C(C)C)N(C)C)C(C)C

Experiments:
Recombinant human EGFR = Recombinant human EGFR (Homo sapiens, UniProt P00533); experiment: Surface plasmon resonance on immobilized EGFR; conditions: SPR, EGFR as immobilized surface, 1:1 binding model, 25° C.
Protocol: Binding affinity constant of antibody mimics was calculated by surface plasmon resonance (Reichert SR7000DC). A carboxymethyl dextran gold sensor chip was activated by N-hydroxysuccinimide (NHS) and N-ethyl-N″-[3-([…])propyl] carbodiimide (EDC) at 25° C. using phosphate buffered saline pH 7.4 with 0.05% tween 20 as running buffer. […] Unreactive sites were blocked by flowing over the chip 1 M ethanolamine pH 8.5 at 10 μL/min for 8 minutes. […] The resulting sensograms were globally fitted using Scrubber2 software (BioLogic Software, Campbell, Australia) in a 1:1 binding model to determine the association rate (kon), dissociation rate (kd or koff), and dissociation constant KD.

[1] = biological target: T1, HER2 recombinant human protein (Homo sapiens, UniProt P04626); experiment: Surface plasmon resonance on immobilized HER2; format: binding; conditions: SPR
T1 construct: purchased Life Technologies / Thermo Fisher Scientific Inc
Protocol: All experiments were carried out at 25° C. with a data collection rate of 2 Hz. The running method was created using the Autolink control software. PBS with 0.01% Tween 20 (pH7.4) buffers were filtered and thoroughly degassed before use. HER2 recombinant human protein was covalently attached to the left channel of a 500,000 Da carboxymethylated dextran sensor chip using EDC and NHS chemistries. Then, the chip was blocked by passing EA for 8 minutes at a rate of 10 μL/min. […] Triplicate determinations were done at each concentration. The bound surface was regenerated by sequential injections of 10 mM glycine in PBST (pH 2.5).
The sensorgrams from SPR were globally treated using Scrubber 2® software where all traces were zeroed, cropped, aligned, and referenced. Kinetic constants ka and kd were determined by global fitting analyses of the titration curves using the 1:1 Lagmurian interaction model taking into account the mass transport. The equilibrium dissociation constant (KD) was calculated from the kd/ka ratio.

[2] = tested on: MDA-MB-361, ZR-75-1 and HEK293 cells; experiment: Confocal microscopy binding of FITC labeled HER2-PEPs; format: cell-based; conditions: 10 μM FITC labeled peptide, 15 minutes at 37° C.
Protocol: MDA-MB-361, ZR-75-1 and […] cells were grown in T75 flasks at 37° C. and 5% CO2. Upon reaching 80% confluency, the cells were counted and seeded onto coverslips placed inside 6-well culture plates at a density of 80,000 cells/well. The cells were allowed to attach for 24 hours before the experiment was performed. Upon attachment, the cells were washed twice with HBSS and serum free media.
Stock solutions of FITC labeled HER2-PEPs and control peptide were prepared with dimethyl sulfoxide (DMSO). Stock solutions were diluted with serum free media medium several times and less than 1% of DMSO was presented in the final solutions of all peptides (10 μM), which were added to the 6-well culture plates.
After incubating 15 minutes at 37° C., the medium was removed and the cells were washed twice with HBSS. The cells were then treated with a 2.5 μg/mL solution of Alexa fluor 594 wheat germ agglutinin in HBSS for 10 minutes to stain the cell plasma membrane. The dye solution was removed and cells were washed twice with HBSS. The cells were then fixed by performing a 15 minute treatment using 4% paraformaldehyde solution prepared in HBSS. The cells were washed with HBSS followed by a final wash of distilled water. […] The FITC fluorescence was visualized using 491 nm and the Alexa fluor 594 fluorescence was visualized using 561 nm wavelength filter.

[3] = tested on: A431, MDA-MB-468 and HEK 293 cells; experiment: Confocal binding/internalization of FITC labeled peptides; format: cell-based
Protocol: (§1) A431, MDA-MB-468 and HEK 293 cells were cultured in 75 cm^2 culture flasks in DMEM supplemented with 10% FBS. For binding/internalization studies, 5×10^5 cells were seeded in cover slips in 6 well culture plates overnight. After the medium was removed, the cells were washed with HBSS and then cells were treated with FITC labeled antibody mimic and scrambled (control) peptide in serum free DMEM for 30 minutes at 37° C. Cells were then washed with HBSS to remove any unbound peptides and incubated with AlexaFluor 594 wheat germ agglutinin to stain cell membranes. Cells were fixed with 4% paraformaldehyde and cover slips were mounted on slides which contain a drop of SlowFade®. Cells were then imaged with an inverted Leica DMIRE2 fluorescence microscope (Leica Biosystems Richmond Inc., Richmond, USA) using a Yokogawa CSUX1 confocal scanner unit. For flow cytometry studies, cells were washed with HBSS after incubation with antibody mimics, control peptide for 30 minutes, and dissociated using trypsin-EDTA. Cells were then centrifuged at 500 g for 5 min. Supernatant was removed and cell pellets were re-suspended in FACS solution. The cell suspension was then analyzed on a Beckman Coulter flow cytometer and data were analyzed using the Cell Questpro. A total of 10000 events were collected monitoring FITC.

MDA-MB-468 cells [4] = experiment: In vitro cytotoxicity, sulforhodamine B assay; format: cell-based; conditions: MDA-MB-468, 72 h, SRB
Protocol: (§2) Cells were cultured to 80% confluency in T75 culture flasks using Dulbecco's Modified Eagle's Medium (DMEM) as growth medium. The cell density was determined using a Coulter Counter. The cells were seeded onto 96 well plates and grown for 24 h. to 50% confluency. […] At the end of the incubation period, the cells were fixed using 10% trichloroacetic acid, followed by washing with distilled water and drying. The cellular proteins were stained using 50 μL of 0.4% sulforhodamine B (SRB) in 1% acetic acid. Unbound SRB was washed with 1% acetic acid and the plates were dried overnight. The cell-bound SRB was then solubilized using 200 μL of 10 mM unbuffered Tris base solution. SRB absorbance was measured at 560 nm wavelength using a Plate Reader. The percent viability of cells was plotted as a function of log concentration and data was analyzed in GraphPad Prism Version 5.0 software (GraphPad Software, Inc., California, USA) using a nonlinear-regression curve fit (variable slope four parameter equation).

A431 cells [5] = conditions: for IC50: A431, 72 h, SRB; for more potent than the drug alone: EGFR over-expressing cancer cells (A431, MDA-MB-468), vs auristatin E
Protocol: as §2

HEK 293 cells = conditions: for IC50: HEK 293, 72 h, SRB
Protocol: as §2

A431 cells [6] = experiment: Flow cytometry uptake of FITC labeled peptides; format: cell-based
Protocol: as §1

MDA-MB-468 cells [7] = experiment: Flow cytometry uptake of FITC labeled peptides; format: cell-based
Protocol: as §1

[8] = Peptide-drug conjugate pH hydrolysis study; format: physicochemical
Protocol: Peptide-drug conjugate was evaluated for half-life determination at pH 5 and 7.4. For this, a 1 mg/mL concentration of PDC was incubated in ammonium bicarbonate buffers, pH 5 and 7.4. Degradation of PDC was evaluated by calculating the area under the curve after 0, 0.5, 1, 2, 4, 6 and 48 hours using HPLC with a gradient method, with TEAA buffer pH 7 and acetonitrile.

T1 sequence (P04626 23-1255): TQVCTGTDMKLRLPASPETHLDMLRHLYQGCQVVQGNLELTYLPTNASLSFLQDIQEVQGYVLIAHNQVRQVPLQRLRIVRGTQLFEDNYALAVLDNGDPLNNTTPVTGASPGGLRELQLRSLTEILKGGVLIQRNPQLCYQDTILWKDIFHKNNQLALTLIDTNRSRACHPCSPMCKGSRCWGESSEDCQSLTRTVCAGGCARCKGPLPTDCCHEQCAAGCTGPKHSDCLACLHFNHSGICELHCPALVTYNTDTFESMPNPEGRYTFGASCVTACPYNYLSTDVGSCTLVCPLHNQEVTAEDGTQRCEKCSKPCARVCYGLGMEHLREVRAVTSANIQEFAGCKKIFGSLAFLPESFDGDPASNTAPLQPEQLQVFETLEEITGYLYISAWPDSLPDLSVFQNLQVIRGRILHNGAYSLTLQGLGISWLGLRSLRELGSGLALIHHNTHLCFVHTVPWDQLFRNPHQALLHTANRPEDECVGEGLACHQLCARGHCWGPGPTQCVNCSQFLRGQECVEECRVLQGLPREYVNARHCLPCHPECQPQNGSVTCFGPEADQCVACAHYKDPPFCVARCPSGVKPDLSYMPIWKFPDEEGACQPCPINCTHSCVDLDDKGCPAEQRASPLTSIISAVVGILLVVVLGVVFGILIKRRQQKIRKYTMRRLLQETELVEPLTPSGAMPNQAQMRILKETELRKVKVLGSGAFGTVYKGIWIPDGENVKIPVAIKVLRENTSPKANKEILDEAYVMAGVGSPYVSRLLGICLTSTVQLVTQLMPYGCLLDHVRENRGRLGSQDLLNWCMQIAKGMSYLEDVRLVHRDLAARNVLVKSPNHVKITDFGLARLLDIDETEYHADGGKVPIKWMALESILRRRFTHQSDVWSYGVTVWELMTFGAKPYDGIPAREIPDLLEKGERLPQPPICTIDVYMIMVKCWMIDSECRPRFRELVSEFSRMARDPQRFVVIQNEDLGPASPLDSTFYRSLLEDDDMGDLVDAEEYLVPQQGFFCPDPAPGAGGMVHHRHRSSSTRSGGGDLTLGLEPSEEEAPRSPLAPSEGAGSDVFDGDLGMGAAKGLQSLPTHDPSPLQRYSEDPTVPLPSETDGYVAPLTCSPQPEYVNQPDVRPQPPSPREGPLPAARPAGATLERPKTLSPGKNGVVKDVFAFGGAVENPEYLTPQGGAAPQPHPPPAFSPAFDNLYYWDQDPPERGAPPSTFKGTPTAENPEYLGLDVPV
Recombinant human EGFR, sequence (P00533 25-1210): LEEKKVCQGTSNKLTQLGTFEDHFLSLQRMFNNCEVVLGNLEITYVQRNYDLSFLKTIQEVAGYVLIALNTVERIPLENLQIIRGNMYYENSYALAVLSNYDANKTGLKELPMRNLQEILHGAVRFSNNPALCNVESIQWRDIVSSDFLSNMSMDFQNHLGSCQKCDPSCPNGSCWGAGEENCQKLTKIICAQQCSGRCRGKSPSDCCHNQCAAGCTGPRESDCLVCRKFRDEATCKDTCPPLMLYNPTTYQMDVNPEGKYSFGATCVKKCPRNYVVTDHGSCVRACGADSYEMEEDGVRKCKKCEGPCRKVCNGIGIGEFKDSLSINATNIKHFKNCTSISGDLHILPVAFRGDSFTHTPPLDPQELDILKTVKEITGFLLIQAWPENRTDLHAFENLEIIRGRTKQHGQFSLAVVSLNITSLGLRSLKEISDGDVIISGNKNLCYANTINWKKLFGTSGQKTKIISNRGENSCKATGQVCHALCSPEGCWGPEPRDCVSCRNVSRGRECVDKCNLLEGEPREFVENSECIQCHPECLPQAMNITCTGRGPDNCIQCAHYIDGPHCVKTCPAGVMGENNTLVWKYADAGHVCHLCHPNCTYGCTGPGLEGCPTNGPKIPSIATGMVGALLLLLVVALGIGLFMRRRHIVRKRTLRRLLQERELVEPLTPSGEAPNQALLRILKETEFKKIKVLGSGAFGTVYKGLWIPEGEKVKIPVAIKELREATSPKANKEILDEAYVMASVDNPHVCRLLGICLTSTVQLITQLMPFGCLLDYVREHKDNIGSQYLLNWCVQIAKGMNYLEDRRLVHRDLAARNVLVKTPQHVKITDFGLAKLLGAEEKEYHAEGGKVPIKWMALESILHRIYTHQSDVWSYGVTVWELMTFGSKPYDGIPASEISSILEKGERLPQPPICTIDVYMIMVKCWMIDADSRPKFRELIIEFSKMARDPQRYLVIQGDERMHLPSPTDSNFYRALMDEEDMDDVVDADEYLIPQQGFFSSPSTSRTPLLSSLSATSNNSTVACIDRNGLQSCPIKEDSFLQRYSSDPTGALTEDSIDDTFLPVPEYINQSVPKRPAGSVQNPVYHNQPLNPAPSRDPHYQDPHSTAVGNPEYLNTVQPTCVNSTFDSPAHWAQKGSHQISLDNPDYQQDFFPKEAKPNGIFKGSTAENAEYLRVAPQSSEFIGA

## C[C@H](NC(=O)[C@H](CCC(=O)O)NC(=O)[C@H](Cc1ccc(O)cc1)NC(=O)[C@H](CC(=O)O)NC(=O)[C@H](Cc1ccc(O)cc1)NC(=O)[C@H](Cc1ccccc1)NC(=O)[C@@H](NC(=O)CNC(=O)[C@@H]1CCCN1C(=O)CNC(=O)[C@H](CC(N)=O)NC(=O)[C@H](CCC(=O)O)NC(=O)CNC(=O)[C@H](CO)NC(=O)[C@@H](N)Cc1c[nH]c2ccccc12)[C@@H](C)O)C(=O)O [Pep22] (H-WSGENGPGTFYDYEA-OH; N-terminus and C-terminus assumed)
Recombinant human EGFR
  koff: 0.0259 s⁻¹
  kon: 43500 M⁻¹ s⁻¹

## CC(C)C[C@H](NC(=O)[C@H](Cc1ccccc1)NC(=O)CNC(=O)[C@H](C)NC(=O)[C@H](CC(=O)O)NC(=O)[C@H](CC(N)=O)NC(=O)[C@@H]1CCCN1C(=O)[C@H](Cc1ccc(O)cc1)NC(=O)CNC(=O)[C@H](CCC(N)=O)NC(=O)[C@@H]1CCCN1C(=O)[C@H](CO)NC(=O)[C@@H](N)[C@@H](C)O)C(=O)NCC(=O)N[C@@H](CCCNC(=N)N)C(=O)N[C@@H](CCC(=O)O)C(=O)N[C@@H](CO)C(=O)N[C@H](C(=O)N[C@@H](CC(N)=O)C(=O)O)[C@@H](C)O [HER2-Pep22] (H-TSPQGYPNDAGFLGRESTN-OH; N-terminus and C-terminus assumed)
[1]
  KD higher than that of HER2-PEP11 and HER2-PEP21: about 2000 fold
[1]; HER2 immobilized, 1:1 model, 25° C.
  kd: 0.0181 s⁻¹
[1]; HER2 immobilized, 1:1 model, 25° C., read-out: ka
  kon: 131 M⁻¹ s⁻¹
[2]
  binding to cells, confocal microscopy: no binding to all the three cell lines

## C[C@H](NC(=O)[C@H](CCC(=O)O)NC(=O)[C@H](Cc1ccc(O)cc1)NC(=O)[C@H](CC(=O)O)NC(=O)[C@H](Cc1ccc(O)cc1)NC(=O)[C@H](Cc1ccccc1)NC(=O)CNC(=O)[C@@H]1CCCN1C(=O)CNC(=O)[C@H](CC(N)=O)NC(=O)[C@H](CCC(=O)O)NC(=O)CNC(=O)[C@H](CO)NC(=O)[C@@H](N)Cc1c[nH]c2ccccc12)C(=O)O [Pep11] (H-WSGENGPGFYDYEA-OH; N-terminus and C-terminus assumed)
Recombinant human EGFR
  Kd: 252 nM
  koff: 0.0252 s⁻¹
  kon: 100000 M⁻¹ s⁻¹
[3]; EGFR blocked by cetuximab for 30 min, A431 and MDA-MB-468
  binding to cells after cetuximab pre-incubation: inhibited/decreased
MDA-MB-468 cells [4]
  IC50: 420 nM
A431 cells [5]
  IC50: 388 nM
HEK 293 cells
  IC50: 1040 nM
HEK 293 cells; HEK 293 vs cells that over-express EGFR
  lower potency towards control cells compared to cancer cells: 2- to 3 fold

## SGEWAYDGYEPNFG (Synthetic amino acid - Control) [Pep25, scrambled peptide, negative control]
A431 cells [6]
  binding to cancer cell line, flow cytometry: negligible binding
MDA-MB-468 cells [7]
  binding to cancer cell line, flow cytometry: negligible binding
[3]; FITC labeled peptide, 30 minutes at 37° C.
  binding to cells, confocal fluorescence: negligible binding

## C[C@H](NC(=O)[C@H](CCC(=O)O)NC(=O)[C@H](Cc1ccc(O)cc1)NC(=O)[C@H](CC(=O)O)NC(=O)[C@H](Cc1ccccc1)NC(=O)[C@H](Cc1ccc(O)cc1)NC(=O)CNC(=O)[C@@H]1CCCN1C(=O)CNC(=O)[C@H](CC(N)=O)NC(=O)[C@H](CCC(=O)O)NC(=O)CNC(=O)[C@H](CO)NC(=O)[C@@H](N)Cc1c[nH]c2ccccc12)C(=O)O [Pep6] (H-WSGENGPGYFDYEA-OH; N-terminus and C-terminus assumed)
Recombinant human EGFR
  koff: 0.00581 s⁻¹
  kon: 1210 M⁻¹ s⁻¹

## CC[C@H](C)[C@@H]([C@@H](CC(=O)N1CCC[C@H]1[C@H](OC)[C@@H](C)C(=O)N[C@H](C)[C@@H](OC(=O)CCCCC(=NNC(=O)CCCCCN1C(=O)CC(SC[C@H](NC(=O)[C@H](C)NC(=O)[C@H](CCC(=O)O)NC(=O)[C@H](Cc2ccc(O)cc2)NC(=O)[C@H](CC(=O)O)NC(=O)[C@H](Cc2ccc(O)cc2)NC(=O)[C@H](Cc2ccccc2)NC(=O)[C@@H](NC(=O)CNC(=O)[C@@H]2CCCN2C(=O)CNC(=O)[C@H](CC(N)=O)NC(=O)[C@H](CCC(=O)O)NC(=O)CNC(=O)[C@H](CO)NC(=O)[C@@H](N)Cc2c[nH]c3ccccc23)[C@@H](C)O)C(=O)O)C1=O)c1ccccc1)c1ccccc1)OC)N(C)C(=O)[C@@H](NC(=O)[C@H](C(C)C)N(C)C)C(C)C (some centres unmarked) [PDC] (H-WSGENGPGTFYDYEAC(X1)-OH; N-terminus and C-terminus assumed)
[8]; pH 5, ammonium bicarbonate buffer
  half-life at 1 mg/mL: 2.8 h
[8]; pH 7.4, ammonium bicarbonate buffer
  half-life at 1 mg/mL: > 48 h
A431 cells [5]
  more potent than the drug alone: approximately 10 fold
A431 cells [5]; listed as Peptide-drug conjugate
  more potent than the drug alone: around 10 fold
HEK 293 cells; control cells (HEK 293), vs auristatin E
  potency lower than drug alone: more than 100 fold

## C[C@H](N)C(=O)N[C@@H](CCC(=O)O)C(=O)N[C@@H](Cc1ccc(O)cc1)C(=O)N[C@@H](CC(=O)O)C(=O)N[C@@H](Cc1ccccc1)C(=O)N[C@@H](Cc1ccc(O)cc1)C(=O)NCC(=O)N1CCC[C@H]1C(=O)NCC(=O)N[C@@H](CC(N)=O)C(=O)N[C@@H](CCC(=O)O)C(=O)NCC(=O)N[C@@H](CO)C(=O)N[C@@H](Cc1c[nH]c2ccccc12)C(=O)O [Pep24] (H-AEYDFYGPGNEGSW-OH; N-terminus and C-terminus assumed)
Recombinant human EGFR
  koff: 0.103 s⁻¹
  kon: 14300 M⁻¹ s⁻¹

## CC[C@H](C)[C@@H]([C@@H](CC(=O)N1CCC[C@H]1[C@H](OC)[C@@H](C)C(=O)N[C@H](C)[C@@H](O)c1ccccc1)OC)N(C)C(=O)[C@@H](NC(=O)[C@H](C(C)C)N(C)C)C(C)C [Auristatin E, reference compound]
MDA-MB-468 cells [4]
  IC50: 0.0117 nM
A431 cells [5]
  IC50: 0.0246 nM
HEK 293 cells
  IC50: 0.0626 nM
